Assay: mn = molality of the nth substance listed, in mol/kg
Settings: 99.6 kPa, Liquid; for viscosity: Capillary tube (Ostwald / Ubbelohde) method; for mass density: Vibrating tube method

CNC(C)=O [N-methylacetamide] + [Cl-].[Cl-].[Mg+2]
Settings	mass density, 308.15 K [kg/m3]	mass density, 313.15 K [kg/m3]	mass density, 318.15 K [kg/m3]	mass density, 323.15 K [kg/m3]	mass density, 328.15 K [kg/m3]	viscosity, 308.15 K [mPa·s]	viscosity, 313.15 K [mPa·s]	viscosity, 318.15 K [mPa·s]	viscosity, 323.15 K [mPa·s]	viscosity, 328.15 K [mPa·s]
m2 = 0	945.71	941.53	937.33	933.16	928.93	3.488	3.073	2.723	2.438	2.194
m2 = 0.00111	945.76	941.57	937.37	933.2	928.98	3.491	3.077	2.725	2.44	2.196
m2 = 0.004	945.9	941.69	937.51	933.33	929.12	3.502	3.087	2.735	2.448	2.203
m2 = 0.00479	945.94	941.73	937.54	933.37	929.16	3.505	3.09	2.737	2.451	2.204
m2 = 0.00663	946.03	941.81	937.63	933.45	929.24	3.512	3.097	2.743	2.455	2.208
m2 = 0.00734	946.06	941.85	937.66	933.48	929.29	3.514	3.099	2.747	2.457	2.211
m2 = 0.00868	946.13	941.92	937.73	933.54	929.35	3.52	3.103	2.75	2.462	2.214
m2 = 0.01179	946.27	942.07	937.87	933.7	929.49	3.531	3.114	2.76	2.471	2.221
m2 = 0.01529	946.45	942.24	938.04	933.87	929.68	3.544	3.127	2.771	2.48	2.23
m2 = 0.02124	946.72	942.53	938.33	934.15	929.95	3.566	3.147	2.792	2.495	2.244
m2 = 0.02416	946.86	942.67	938.47	934.29	930.09	3.577	3.156	2.801	2.505	2.251
m2 = 0.05144	948.15	943.94	939.77	935.6	931.4	3.681	3.251	2.89	2.579	2.317
m2 = 0.0831	949.6	945.45	941.26	937.11	932.91	3.798	3.361	2.994	2.67	2.391

From the NIST ThermoML archive (doi:10.1021/acs.jced.9b00046)
